In patent US12180207B2 (ARRAY BIOPHARMA INC., priority 2018, dated 2024):

Columns and labels:
[1] = biological target: recombinant human FGFR3 (amino acids R397-T806) (Homo sapiens (Human), UniProt P22607); experiment: FGFR3 enzyme activity assay (LanthaScreen TR-FRET); assay type: biochemical; conditions: 25 μM ATP, 10 min incubation at 22° C., average of multiple determinations if made, read-out: FGFR3 Enz FRET IC50
How it was run: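 GST-HIS6-tagged human FGFR3 (R397-T806) was reacted with 100 nM Alexa Fluor 647-Poly-GT substrate and 25 μM ATP plus compound in HEPES/MgCl2/Triton buffer, pH 7.5, 2% DMSO, for 10 min at 22 °C.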

[2] = biological target: FGFR1 (SEQ ID NO: 1, amino acids 458-765) (Homo sapiens (Human), UniProt P11362); experiment: LC/MS FGFR1 kobs assay (covalent protein modification); assay type: binding; conditions: 500 nM FGFR1, 3 μM compound
How it was run: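 Covalent labeling of FGFR1 kinase domain (aa 458-765) tracked over time by intact-protein LC/MS after formic acid quench. kobs derived by fitting DMSO-normalized percent unmodified FGFR1 to an exponential decay model.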

[3] = biological target: FGFR3 (SEQ ID NO: 5, amino acids 449-759) (Homo sapiens (Human), UniProt P22607); experiment: LC/MS FGFR3 kobs assay (covalent protein modification); assay type: binding; conditions: 500 nM FGFR3, 3 μM compound
How it was run: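 Intact-mass LC/MS tracks covalent labeling of the kinase domain over time after acid quench (0.4% formic acid). Unmodified fraction, scaled to DMSO controls, is fitted as exponential decay; kobs is reported, averaged when measured more than once.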

[4] = biological target: recombinant human FGFR1 catalytic domain (amino acids 308-731) (Homo sapiens (Human), UniProt P11362); experiment: FGFR1 enzyme activity assay (LanthaScreen TR-FRET); assay type: biochemical; conditions: 20 min incubation at 22° C., average of multiple determinations if made, read-out: FGFR1 Enz FRET IC50
How it was run: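 His-tagged FGFR1 kinase domain with 100 nM Alexa Fluor 647-poly-GT peptide and ATP in pH 7.5 HEPES/MgCl2 buffer with 2% DMSO, 20 min at 22 °C. Quenched with EDTA plus 2 nM Eu-PY20 antibody and read after 60 min. IC50 comes from a 4-parameter fit of percent of control.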

[5] = biological target: dephosphorylated FGFR1 (SEQ ID NO: 1, amino acids 458 to 765) (Homo sapiens (Human), UniProt P11362); experiment: FGFR enzyme binding assay (HTRF tracer displacement), FGFR1; conditions: 5 nM dephosphorylated FGFR1, average of multiple determinations if made
How it was run: (§1)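 Compounds were tested for displacement of a tracer from human FGFR kinase in a time-resolved FRET binding format. After 60 minutes at 22° C, signal was read at two wavelengths and converted to percent of control, normalised between untreated wells and 1 μM reference inhibitor.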

[6] = biological target: phosphorylated FGFR3 (SEQ ID NO: 5, amino acids 449 to 759) (Homo sapiens (Human), UniProt P22607); experiment: FGFR enzyme binding assay (HTRF tracer displacement), FGFR3; conditions: 5 nM phosphorylated FGFR3, average of multiple determinations if made
How it was run: as §1

Sequence of recombinant human FGFR3 (amino acids R397-T806) (P22607 397-806): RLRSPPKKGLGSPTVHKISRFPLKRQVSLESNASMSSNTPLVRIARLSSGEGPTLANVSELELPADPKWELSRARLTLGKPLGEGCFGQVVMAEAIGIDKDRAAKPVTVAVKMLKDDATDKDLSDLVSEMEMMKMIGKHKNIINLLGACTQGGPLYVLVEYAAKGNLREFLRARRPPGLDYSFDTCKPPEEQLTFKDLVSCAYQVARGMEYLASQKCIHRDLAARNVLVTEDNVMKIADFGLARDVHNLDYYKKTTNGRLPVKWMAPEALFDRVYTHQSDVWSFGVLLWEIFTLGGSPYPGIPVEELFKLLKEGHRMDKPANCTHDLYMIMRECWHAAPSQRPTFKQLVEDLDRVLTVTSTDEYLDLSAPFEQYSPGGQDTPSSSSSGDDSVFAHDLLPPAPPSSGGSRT
Sequence of recombinant human FGFR1 catalytic domain (amino acids 308-731) (P11362 other isoform, or with tags, fused parts or gaps): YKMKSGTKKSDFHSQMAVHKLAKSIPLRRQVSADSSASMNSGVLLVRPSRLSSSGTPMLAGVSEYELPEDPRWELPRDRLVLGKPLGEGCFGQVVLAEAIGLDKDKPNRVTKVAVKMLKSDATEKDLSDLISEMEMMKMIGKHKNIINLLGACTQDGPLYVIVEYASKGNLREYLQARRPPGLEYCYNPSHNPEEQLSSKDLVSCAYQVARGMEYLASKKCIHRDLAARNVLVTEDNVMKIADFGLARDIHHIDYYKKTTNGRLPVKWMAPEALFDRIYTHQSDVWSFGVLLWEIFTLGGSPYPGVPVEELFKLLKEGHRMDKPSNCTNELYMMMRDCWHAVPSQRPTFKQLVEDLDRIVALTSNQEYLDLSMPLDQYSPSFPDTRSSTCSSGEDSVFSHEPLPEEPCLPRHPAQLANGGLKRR
Sequence of FGFR3 (SEQ ID NO: 5, amino acids 449-759) (P22607 449-759): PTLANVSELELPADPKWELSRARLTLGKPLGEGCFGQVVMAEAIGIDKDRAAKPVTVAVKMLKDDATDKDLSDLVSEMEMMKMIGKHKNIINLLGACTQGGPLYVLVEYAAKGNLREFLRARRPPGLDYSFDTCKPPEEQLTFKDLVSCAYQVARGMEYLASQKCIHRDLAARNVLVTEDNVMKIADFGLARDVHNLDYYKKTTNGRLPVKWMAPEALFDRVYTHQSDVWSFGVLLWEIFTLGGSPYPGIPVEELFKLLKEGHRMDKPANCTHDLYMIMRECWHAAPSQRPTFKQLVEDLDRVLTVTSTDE
Sequence of phosphorylated FGFR3 (SEQ ID NO: 5, amino acids 449 to 759) (P22607 449-759): as above
Sequence of dephosphorylated FGFR1 (SEQ ID NO: 1, amino acids 458 to 765) (P11362 458-765): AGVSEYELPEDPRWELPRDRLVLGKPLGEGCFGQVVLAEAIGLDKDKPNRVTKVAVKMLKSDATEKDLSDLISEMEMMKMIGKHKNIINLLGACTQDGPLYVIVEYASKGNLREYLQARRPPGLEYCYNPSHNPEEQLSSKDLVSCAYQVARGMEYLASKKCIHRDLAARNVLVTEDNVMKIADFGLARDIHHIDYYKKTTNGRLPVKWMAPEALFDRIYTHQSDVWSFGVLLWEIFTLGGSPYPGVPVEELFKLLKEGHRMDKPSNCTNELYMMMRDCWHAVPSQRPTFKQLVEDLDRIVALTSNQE
Sequence of FGFR1 (SEQ ID NO: 1, amino acids 458-765) (P11362 458-765): as above

Compound | IC50 [1] [nM] | FGFR1 Enz kobs [2] [min⁻¹] | FGFR3 Enz kobs [3] [min⁻¹] | IC50 [4] [nM] | IC50 [5] [nM] | IC50 [6] [nM]
C=CC(=O)N1CC(F)(C(=O)N2CCC(n3ncc(-c4cc(OC)c5c(C#N)cnn5c4)c3C)CC2)C1 [Example 85, 6-(1-(1-(1-acryloyl-3-fluoroazetidine-3-carbonyl)piperidin-4-yl)-5-methyl-1H-pyrazol-4-yl)-4-methoxypyrazolo[1,5-a]pyridine-3-carbonitrile] | 7 | 0.00492 | 0.1061 | 77 | 247 | 3
C=CC(=O)N1CC(C)(C(=O)N2CCC(n3ncc(-c4cc(OC)c5c(C#N)cnn5c4)c3C)CC2)C1 [Example 86, 6-(1-(1-(1-acryloyl-3-methylazetidine-3-carbonyl)piperidin-4-yl)-5-methyl-1H-pyrazol-4-yl)-4-methoxypyrazolo[1,5-a]pyridine-3-carbonitrile] | 11 | 0.00258 | 0.02116 | 617 | 342 | 9
C=CC(=O)N1CC(C(=O)N2CCC(n3ncc(-c4cc(OC)c5c(C#N)cnn5c4)c3C)CC2)C1(C)C (stereo not drawn) [Example 87, 6-(1-(1-(1-acryloyl-2,2-dimethylazetidine-3-carbonyl)piperidin-4-yl)-5-methyl-1H-pyrazol-4-yl)-4-methoxypyrazolo[1,5-a]pyridine-3-carbonitrile] | 32 | 0.00052 | 0.00502 | 240 | 322 | 16
C=CC(=O)N1CC(OC)(C(=O)N2CCC(n3ncc(-c4cc(OC)c5c(C#N)cnn5c4)c3C)CC2)C1 [Example 88, 6-(1-(1-(1-acryloyl-3-methoxyazetidine-3-carbonyl)piperidin-4-yl)-5-methyl-1H-pyrazol-4-yl)-4-methoxypyrazolo[1,5-a]pyridine-3-carbonitrile] | 29 | 0.00646 | 0.05581 | 152 | 202 | 3
C=CC(=O)N1CC(CN2CCC(n3ncc(-c4cc(OC)c5c(C#N)cnn5c4)c3C)CC2)C1 [Example 89, 6-(1-(1-((1-acryloylazetidin-3-yl)methyl)piperidin-4-yl)-5-methyl-1H-pyrazol-4-yl)-4-methoxypyrazolo[1,5-a]pyridine-3-carbonitrile] | 15 | 0.00364 | 0.02499 | 108 | 236 | 8
C=CC(=O)N1CC(C)(CN2CCC(n3ncc(-c4cc(OC)c5c(C#N)cnn5c4)c3C)CC2)C1 [Example 90, 6-(1-(1-((1-acryloyl-3-methylazetidin-3-yl)methyl)piperidin-4-yl)-5-methyl-1H-pyrazol-4-yl)-4-methoxypyrazolo[1,5-a]pyridine-3-carbonitrile] | 21 | 0.00243 | 0.01468 | 165 | 379 | 14
C=CC(=O)N1CC(CN2CCC(n3ncc(-c4cc(OC)c5c(C#N)cnn5c4)c3C)CC2)(OC)C1 [Example 91, 6-(1-(1-((1-acryloyl-3-methoxyazetidin-3-yl)methyl)piperidin-4-yl)-5-methyl-1H-pyrazol-4-yl)-4-methoxypyrazolo[1,5-a]pyridine-3-carbonitrile] | 19 | 0.00431 | 0.04322 | 197 | 284 | 2
C=CC(=O)N1CC(CN2CC(n3ncc(-c4cc(OC)c5c(C#N)cnn5c4)c3C)C2)C1 [Example 92] | 39 | 0.00191 | 0.00836 | 285 | 444 | 49
C=CC(=O)N1CC(C)(CN2CC(n3ncc(-c4cc(OC)c5c(C#N)cnn5c4)c3C)C2)C1 [Example 93, 6-(1-(1-((1-acryloyl-3-methylazetidin-3-yl)methyl)azetidin-3-yl)-5-methyl-1H-pyrazol-4-yl)-4-methoxypyrazolo[1,5-a]pyridine-3-carbonitrile] | 41 | 0.0012 | 0.00896 | 376 | 482 | 40
C=CC(=O)N1CC(C(=O)N2CCC(n3cc(-c4cc(OC)c5c(C#N)cnn5c4)c(C)n3)CC2)C1 [Example 94, 6-(1-(1-(1-acryloylazetidine-3-carbonyl)piperidin-4-yl)-3-methyl-1H-pyrazol-4-yl)-4-methoxypyrazolo[1,5-a]pyridine-3-carbonitrile] | 8 | 0.00145 | 0.01518 | 73 | 346 | 18
C=CS(=O)(=O)N[C@H]1CC[C@H](C(=O)N2CCC(n3cc(-c4cc(OC)c5c(C#N)cnn5c4)cn3)CC2)C1 [Example 190, N-((1S,3S)-3-(4-(4-(3-cyano-4-methoxypyrazolo[1,5-a]pyridin-6-yl)-1H-pyrazol-1-yl)piperidine-1-carbonyl)cyclopentyl)-ethenesulfonamide] | 1 | 0.00423 | 0.02714 | 9 | 37 | 3
C=CS(=O)(=O)N[C@@H]1CC[C@H](C(=O)N2CCC(n3cc(-c4cc(OC)c5c(C#N)cnn5c4)cn3)CC2)C1 [Example 191, N-((1R,3S)-3-(4-(4-(3-cyano-4-methoxypyrazolo[1,5-a]pyridin-6-yl)-1H-pyrazol-1-yl)piperidine-1-carbonyl)cyclopentyl)-ethenesulfonamide] | 4 | 0.00583 | 0.02236 | 19 | 103 | 10
